Counter-ions that a name gives are not always drawn.
Key:
Assay in all cases: Antiviral activity in deCIPhR cellular system (replicative phenotyping, β-galactosidase indicator cell line)
Format in all cases: cell-based
Settings in all cases: Human immunodeficiency virus 1
HIV-1 wild type pNL4-3 = system: HIV-1 wild type pNL4-3
Excerpt: (§1) Fully infectious virus HIV-1 was produced from cloned proviral DNA reference coding either for wild-type HIV-1 or from drug-resistant virus following transfection of proviral DNA into recipient mammalian cells. Subsequent to viral protein expression and particle formation, culture supernatant was harvested and used to infect an indicator cell line. This latter cell line expresses all necessary receptors and co-receptors for HIV infection as well as the bacterial gene LacZ coding for β-galactosidase under the control of the HIV-1 long terminal repeat. In this system, amount of β-galactosidase is directly proportional to the extent of viral replication. Activity of β-galactosidase is assayed in presence of a colorless substrate which upon enzymatic conversion yields a yellow product absorbing at 405 nm. Next, variation in colorimetric readout in presence of test compounds was translated in percent viral inhibition following normalization according to absorbance values of positive (presence of anti-HIV drug) and negative (untreated) control wells included in each 96 well-plate. For determining effective concentration 50 % (EC50), test compounds were assayed across a range of concentrations. Percent inhibition data in function of drug concentration were processed by a statistical curve fitting software yielding a modeled curve from which EC50 was extrapolated.

HIV-1 mutant K103N = system: HIV-1 mutant K103N
Excerpt: as §1

HIV-1 mutant GQ (MDR) = system: HIV-1 mutant GQ (MDR)
Excerpt: as §1

HIV-1 mutant K65R = system: HIV-1 mutant K65R
Excerpt: as §1

HIV-1 mutant M4 = system: HIV-1 mutant M4
Excerpt: as §1

HIV-1 mutant M184V = system: HIV-1 mutant M184V
Excerpt: as §1

Work on `Cc1cn([C@H]2C[C@H](F)[C@@H](COP(=O)(O)O)O2)c(=S)[nH]c1=O` [Example 2-SFLTMP, 1-(2-deoxy-3-fluoro-β-D-ribofuranosyl)-2-thiothymine 5'-monophosphate disodium salt] yielded an EC50 (HIV-1 wild type pNL4-3) of 0.224 µM, an EC90 (HIV-1 wild type pNL4-3) of 2.58 µM and an EC50 (HIV-1 mutant K103N) of 0.114 µM. It also gave an EC90 (HIV-1 mutant K103N) of 0.978 µM, an EC50 (HIV-1 mutant GQ (MDR)) of 2.85 µM and an EC90 (HIV-1 mutant GQ (MDR)) of 4.53 µM. For the same molecule, the EC50 (HIV-1 mutant K65R) was 0.504 µM, the EC90 (HIV-1 mutant K65R) was 4.33 µM and the EC50 (HIV-1 mutant M4) was 0.392 µM. The EC90 (HIV-1 mutant M4) was 3.68 µM, the EC50 (HIV-1 mutant M184V) was 0.144 µM and the EC90 (HIV-1 mutant M184V) was 3.26 µM.

Work on `Cc1cn([C@H]2C[C@H](F)[C@@H](COP(=O)(O)O)O2)c(=O)[nH]c1=S` [Example 4-SFLTMP, 1-(2-deoxy-3-fiuoro-β-D-ribofuranosyl)-4-thiothymine 5'-monophosphate disodium salt] yielded an EC50 (HIV-1 wild type pNL4-3) of 0.024 µM, an EC90 (HIV-1 wild type pNL4-3) of 0.166 µM and an EC50 (HIV-1 mutant K103N) of 0.011 µM. It also gave an EC90 (HIV-1 mutant K103N) of 0.05 µM, an EC50 (HIV-1 mutant GQ (MDR)) of 0.048 µM and an EC90 (HIV-1 mutant GQ (MDR)) of 1.8 µM. For the same molecule, the EC50 (HIV-1 mutant K65R) was 0.096 µM, the EC90 (HIV-1 mutant K65R) was 0.338 µM and the EC50 (HIV-1 mutant M4) was 0.031 µM. It also gave an EC90 (HIV-1 mutant M4) of 0.381 µM, an EC50 (HIV-1 mutant M184V) of 0.043 µM and an EC90 (HIV-1 mutant M184V) of 0.425 µM.

With `Cc1cn([C@H]2C[C@H](F)[C@@H](CO)O2)c(=O)[nH]c1=O` [FLT, 2',3'-Dideoxy-3'-fluorothymidine] the EC50 (HIV-1 wild type pNL4-3) was 0.021 µM, the EC90 (HIV-1 wild type pNL4-3) was 0.21 µM and the EC50 (HIV-1 mutant K103N) was 0.018 µM. It also gave an EC90 (HIV-1 mutant K103N) of 0.071 µM, an EC50 (HIV-1 mutant GQ (MDR)) of 0.131 µM and an EC90 (HIV-1 mutant GQ (MDR)) of 1.29 µM. The EC50 (HIV-1 mutant K65R) was 0.032 µM, the EC90 (HIV-1 mutant K65R) was 0.096 µM and the EC50 (HIV-1 mutant M4) was 0.016 µM. It also gave an EC90 (HIV-1 mutant M4) of 0.118 µM, an EC50 (HIV-1 mutant M184V) of 0.027 µM and an EC90 (HIV-1 mutant M184V) of 0.119 µM.
